Test system: SK-Hep-1, a liver adenocarcinoma (hepatoma) cells
Assay: BrdU cell proliferation ELISA, adriamycin plus ascorbate adjuvant, hepatoma cells
Format: cell-based, human
Settings: for suppression of hepatoma proliferation, ADR plus adjuvant compared with ADR alone: adjuvant 0.5 mM AA equivalents, one application of ADR (0.003-0.3 micromolar), two applications of adjuvant, FIG. 1
From the text: Calcium ascorbate (CA), calcium threonate (CT), 4-hydroxy-5-methyl-3(2H)-furanone (FR) and Ester-C (EC) are obtained from Inter-Cal Corporation, Prescott, Ariz., USA. Tissue culture grade Ascorbic acid (AA) is from Sigma Chemical Company, St. Louis, Mo., USA. The composition of calcium ascorbate (calcium di-(L-ascorbate) dihydrate) is made by sequentially dissolving individual components in sterile water to obtain master-stock solutions of equal strength (1% w/v). Aqueous solution of calcium ascorbate plus calcium threonate plus 4-hydroxy-5-methyl-3(2H)-furanone (CA/CT/FR) is prepared at ratio of 85/7.5/7.5. For comparative analysis, stock solutions containing identical ascorbic acid (AA) equivalents are used. All master stocks are stored at room temperature during the course of these procedures. From these, 10× strength working stocks are prepared by serial dilution on the day of use and are applied to cells in microtiter plates as described below.
Adriamycin (doxorubicin) is obtained from Sigma Chemical Company (St. Louis, Mo.). Stock solutions are made by dissolving adriamycin (ADR) in sterile water and DTIC in water or dilute acetic acid solution (0.01N). Stocks are stored frozen at −10 C and thawed prior to use. Serial dilutions are made in sterile water to obtain 10× strength solutions and […] of this is applied to cells at the time of treatment.
Target human tumor-derived or normal lines consist of SK-Hep-1, a liver adenocarcinoma ([…]) and Malme-3M, a malignant melanoma. All seed cultures are obtained from ATCC, Mannassas, Va., USA and are propagated/maintained in serum-containing growth medium in a humidified incubator of 5% CO2/95% air. SH-Hep-1 cells are grown in Eagle's minimum essential medium (EMEM) in Earle's salts plus non-essential amino acids supplemented with 10% FBS plus antibiotics and Malme-3M cells are cultured in McCoy's medium supplemented with 15% fetal bovine serum (FBS) plus antibiotics.
For treatment, exponentially growing cells are seeded at a density of 1×10^4 cells per well of 96-well microtiter plate in 0.1-0.2 ml of growth medium. After overnight cell attachment at 37 C, duplicate wells are exposed to various treatments by direct application of one-tenth volume of 10× strength solution. For treatments involving chemotherapeutic agent, one-tenth volume of serial dilutions of adriamycin (0.0006-3.0 micromolar) are applied to wells followed by application of ascorbate-containing composition (adjuvant) or sterile water (control). The adjuvant treatment is repeated every other day or on the third day (as applicable) without change of growth medium. Untreated controls receive an equivalent amount of sterile water. After 2-3 treatments with adjuvant, cells are labeled with BudR as described below. (In some experiments, wells are refed an equal volume of growth medium prior to additional of BudR. This gives a higher amount of BrdU incorporation into DNA relative to no refluiding).
For DNA labeling, the following procedure are adapted and modified from the Cell Proliferation ELISA, BudR (Colorimetric) assay of Roche Diagnostics, Indianapolis, IN, USA: Each treated well is exposed to one-tenth volume of 10× BrdU-containing medium and reincubated and 37 C overnight (15-20 hrs.). One set of control wells is exposed to medium only (no BudR) to obtain an absorbance-control (substrate only) blank for the assay. After the labeling period, the culture medium is removed and the cells are fixed and DNA denatured in one step by adding FixDenat (30 min at RT). Then, FixDenat is removed, the anti-BrdU-peroxidase reagent is added and incubation continues for 90 min at RT. After removal of the latter, the plate is washed 3 times, followed by addition of substrate solution. The plate is kept at RT until color development became sufficient for photometric detection (5-10 min). […]

Row | Molecule | suppression of hepatoma proliferation, ADR plus adjuvant compared with ADR alone (dihydrate) | suppression of hepatoma proliferation, ADR plus adjuvant compared with ADR alone (listed as Calcium Ascorbate (CA), dihydrate) | suppression of hepatoma proliferation, ADR plus adjuvant compared with ADR alone (listed as Calcium ascorbate, dihydrate) | effect of adjuvant on anti-proliferation activity of low doses of ADR in hepatoma cells (adjuvant at 0.033%, FIG. 4) | suppression of hepatoma proliferation, ADR plus adjuvant compared with ADR alone | suppression of hepatoma proliferation, ADR plus adjuvant compared with ADR alone (listed as Ascorbic Acid (AA))
1 | calcium di-(L-ascorbate) dihydrate | greater suppression of hepatoma proliferation than ADR alone | greater suppression of hepatoma proliferation than doxorubicin alone | more effective than ascorbic acid | consistently improve the anti-proliferation activity of low doses of ADR |  | 
2 | O=C1O[C@H]([C@@H](O)CO)C(O)=C1O [AA, Ascorbic acid, reference compound] |  |  |  |  | greater suppression of hepatoma proliferation than ADR alone | greater suppression of hepatoma proliferation than doxorubicin alone

Reference: patent US6468980B1, “Methods and compositions for potentiating cancer chemotherapeutic agents” (Oxycal Laboratories, Inc., priority 2000, dated 2002)
